For 14 molecules, GI50 and TGI results are on record in PubChem BioAssay (NCI).

Test systems include A549 NSCLC; HCT-116 colon; LOX IMVI melanoma; M14 melanoma; OVCAR-3 ovarian; RPMI-8226 leukemia; SF-295 CNS; SK-OV-3 ovarian; SN12C renal; UACC-62 melanoma.
Holding throughout (assay): NCI anticancer screen, dose series, 48 h

“And” between values parts separate entries of the source, which are not always exact repeats. Equal values may be shown once.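 Test compounds were applied to cells in 96-well plates for 48 hours at 5 doses. Abbreviation: GI50, concentration required for 50% inhibition of growth. TGI marks complete inhibition of growth.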 Some results are limits rather than exact numbers.

Consider `COc1ccc(C2=NN(c3ccc(S(N)(=O)=O)cc3)C(c3ccc(Cl)cc3)C2)c(O)c1` (configuration not stated), for which the GI50 in the experiment with A549 NSCLC was 3.38 µM; in the experiment with HCT-116 colon, 2.32 µM; in the experiment on LOX IMVI melanoma it was 4.83 µM; in the experiment with M14 melanoma it was 7.89 µM; in the experiment on OVCAR-3 ovarian, 2.6 µM; in the experiment on RPMI-8226 leukemia, 1.84 µM. Moreover, the GI50 in the experiment with SF-295 CNS is 3.1 µM; in the experiment on SK-OV-3 ovarian it was 8.23 µM; in the experiment with SN12C renal it was 5.09 µM; in the experiment on UACC-62 melanoma, 5.89 µM. For the same molecule, the TGI with A549 NSCLC was found to be 35.1 µM; in the experiment with HCT-116 colon it was 8.63 µM; in the experiment on LOX IMVI melanoma it was 17 µM; in the experiment with M14 melanoma it was 25.2 µM; in the experiment with OVCAR-3 ovarian, 7.45 µM; with RPMI-8226 leukemia, 6.71 µM. For the same molecule, the TGI with SF-295 CNS worked out at 14.5 µM; with SK-OV-3 ovarian, 56 µM; in the experiment on SN12C renal, 18.3 µM; with UACC-62 melanoma, 19.7 µM.
On to `C/C(=N\NC(=S)Nc1ccccc1)c1ccccn1`, for which the GI50 was 0.263 µM in the experiment with A549 NSCLC; less than 0.01 µM in the experiment on HCT-116 colon; 0.0395 µM in the experiment with LOX IMVI melanoma; 0.0624 µM with M14 melanoma; less than 0.01 µM in the experiment with OVCAR-3 ovarian; 0.0296 µM in the experiment on RPMI-8226 leukemia. Also, the GI50 is 0.109 µM with SF-295 CNS, 0.51 µM with SK-OV-3 ovarian, 0.355 µM with SN12C renal and 0.264 µM in the experiment on UACC-62 melanoma. Besides, the TGI came to 2.9 µM with A549 NSCLC; 1.17 µM with HCT-116 colon; 2.04 µM with LOX IMVI melanoma; 2.17 µM in the experiment with M14 melanoma; 0.0538 µM with OVCAR-3 ovarian; 39.3 µM in the experiment with RPMI-8226 leukemia. Moreover, the TGI in the experiment with SF-295 CNS was determined as 10.7 µM; in the experiment on SK-OV-3 ovarian it was 2.22 µM; with SN12C renal, 9.64 µM; with UACC-62 melanoma it was 2.96 µM.
Consider `CCN1CCC(O)(c2ccccc2)C(C(=O)c2ccccc2)C1` (configuration not stated), for which the TGI in the experiment with A549 NSCLC is more than 100 µM; with HCT-116 colon it was 31 µM; with LOX IMVI melanoma, more than 31.6 µM; with M14 melanoma, 34.4 µM; with OVCAR-3 ovarian it was 31.2 µM; in the experiment on RPMI-8226 leukemia, 33.4 µM. In addition, the TGI with SF-295 CNS is more than 100 µM; in the experiment with SK-OV-3 ovarian, more than 100 µM; in the experiment with SN12C renal, more than 31.6 µM; with UACC-62 melanoma, more than 69.2 µM.
As for `O=C(Nc1ccc(Cl)cc1)C(=O)C1=C(O)c2ccccc2OC1`, the TGI with A549 NSCLC, in the experiment with HCT-116 colon, with LOX IMVI melanoma, with M14 melanoma, in the experiment on OVCAR-3 ovarian and in the experiment with RPMI-8226 leukemia was more than 100 µM throughout. For the same molecule, the TGI with SF-295 CNS, in the experiment with SK-OV-3 ovarian, in the experiment with SN12C renal and in the experiment with UACC-62 melanoma was more than 100 µM each time.
Take `C/C=C(\C)C(=O)O[C@@H]1C=CC(=O)O[C@H]1COC(=O)[C@H](C)O`: the GI50 in the experiment with A549 NSCLC is 18.7 µM; with HCT-116 colon it was 3.39 µM; with LOX IMVI melanoma, 9.64 µM; in the experiment with M14 melanoma, 11.1 µM; in the experiment with OVCAR-3 ovarian it was 14 µM; in the experiment with RPMI-8226 leukemia, 18.8 µM. The GI50 in the experiment with SF-295 CNS is 27.4 µM; with SK-OV-3 ovarian it was 25.2 µM; in the experiment on SN12C renal, 14.5 µM; in the experiment with UACC-62 melanoma, 12.4 µM. Also, the TGI with A549 NSCLC was found to be 51.9 µM; with HCT-116 colon it was 12.2 µM; with LOX IMVI melanoma it was 22.2 µM; in the experiment with M14 melanoma, 30 µM; with OVCAR-3 ovarian, 27.6 µM; in the experiment on RPMI-8226 leukemia it was 44.2 µM. In addition, the TGI in the experiment on SF-295 CNS turned out to be 62.1 µM; in the experiment with SK-OV-3 ovarian, 88.6 µM; in the experiment with SN12C renal, 30.2 µM; with UACC-62 melanoma, 25.5 µM.
As to `Nc1ncn([C@@H]2C=C(CO)C(O)C2O)c(=O)n1` (some centres not stated), the TGI with A549 NSCLC, with HCT-116 colon, in the experiment on LOX IMVI melanoma, with M14 melanoma, in the experiment with OVCAR-3 ovarian and in the experiment on RPMI-8226 leukemia was more than 100 µM each time. The TGI in the experiment with SF-295 CNS, with SK-OV-3 ovarian, in the experiment on SN12C renal and in the experiment with UACC-62 melanoma was more than 100 µM throughout.
In the case of `O=C1c2cccnc2-c2nc(-c3ccccc3)cc3c2c1nc1ccccc13`, the GI50 with A549 NSCLC is 6.97 µM; in the experiment with HCT-116 colon, 1.91 µM; in the experiment with LOX IMVI melanoma it was 6.37 µM; in the experiment on M14 melanoma, 3.57 µM; in the experiment with OVCAR-3 ovarian it was 0.31 µM; in the experiment on RPMI-8226 leukemia, 0.21 µM. Further, the GI50 with SF-295 CNS is 11.4 µM; in the experiment on SK-OV-3 ovarian, 9.58 µM; in the experiment on SN12C renal, 7.14 µM; in the experiment with UACC-62 melanoma, 3.74 µM. The TGI with A549 NSCLC was 21 µM; in the experiment with HCT-116 colon, 7.2 µM; with LOX IMVI melanoma it was 32.6 µM; in the experiment with M14 melanoma, 15.7 µM; in the experiment with OVCAR-3 ovarian, more than 100 µM; in the experiment with SF-295 CNS, 25.3 µM. Further, the TGI in the experiment on SK-OV-3 ovarian came out at 25.2 µM; in the experiment on SN12C renal, 21.1 µM; with UACC-62 melanoma, 9.01 µM.
With `NCCCNCCCNc1nc2ccccc2c2[nH]c3ccccc3c12`, the GI50 with A549 NSCLC was 0.0509 µM; in the experiment on HCT-116 colon, 0.091 µM; in the experiment on LOX IMVI melanoma it was 0.0363 µM; in the experiment with M14 melanoma, 0.672 µM; in the experiment with OVCAR-3 ovarian, 0.449 µM; in the experiment on RPMI-8226 leukemia, 0.343 µM. Also, the GI50 with SF-295 CNS was 0.0664 µM; in the experiment on SK-OV-3 ovarian it was 0.743 µM and 0.322 µM; in the experiment on SN12C renal it was 0.0224 µM; in the experiment with UACC-62 melanoma, 0.327 µM. In addition, the TGI with A549 NSCLC worked out at 4.05 µM; with HCT-116 colon it was 1.87 µM; with LOX IMVI melanoma, 1.12 µM; in the experiment on M14 melanoma, 2.35 µM; with OVCAR-3 ovarian, 2.43 µM; with RPMI-8226 leukemia, 3.51 µM. In addition, the TGI with SF-295 CNS is 1.61 µM; in the experiment on SK-OV-3 ovarian, 4.14 µM and 3.42 µM; in the experiment on SN12C renal, 1.28 µM; in the experiment with UACC-62 melanoma, 1.73 µM.
Consider `c1ccc(COc2ccc(Nc3ncnc4ccc(-c5ccco5)cc34)cc2)cc1`, for which the GI50 was 6.83 µM with A549 NSCLC; 4.93 µM with HCT-116 colon; 4.36 µM with LOX IMVI melanoma; 7.31 µM in the experiment on M14 melanoma; 5.4 µM with OVCAR-3 ovarian; 5.5 µM in the experiment with RPMI-8226 leukemia. Besides, the GI50 in the experiment with SF-295 CNS was 8.62 µM; with SK-OV-3 ovarian it was 0.994 µM; in the experiment on SN12C renal, 8.49 µM; with UACC-62 melanoma, 5.75 µM. Besides, the TGI was more than 25 µM with A549 NSCLC; 12.4 µM in the experiment on HCT-116 colon; 8.96 µM with LOX IMVI melanoma; 19.9 µM with M14 melanoma; 12.8 µM with OVCAR-3 ovarian; 20.2 µM in the experiment on RPMI-8226 leukemia. The TGI in the experiment with SF-295 CNS is more than 25 µM; with SK-OV-3 ovarian it was 8.16 µM; with SN12C renal, more than 25 µM; in the experiment on UACC-62 melanoma, 14.3 µM.
For `CC1(C)OCC(C2OC(On3nnc4ccc(Cl)cc43)C3OC(C)(C)OC23)O1` (configuration not stated), the TGI with A549 NSCLC, in the experiment on HCT-116 colon, in the experiment on LOX IMVI melanoma, with M14 melanoma, in the experiment on OVCAR-3 ovarian and in the experiment with RPMI-8226 leukemia was more than 100 µM throughout. The TGI with SF-295 CNS, with SK-OV-3 ovarian, with SN12C renal and with UACC-62 melanoma was more than 100 µM in each case.
Consider `COc1cc2c(cc1OCCCN1CCN(CCCOc3cc4c(cc3OC)C(=O)C3CCC[C@H]3C=N4)CC1)N=C[C@@H]1CCCC1C2=O` (some centres not stated), for which the GI50 was 35.8 µM in the experiment with A549 NSCLC; 12.1 µM in the experiment on HCT-116 colon; 3.65 µM with LOX IMVI melanoma; 6.25 µM in the experiment with M14 melanoma; 8.17 µM in the experiment on OVCAR-3 ovarian; 0.24 µM with RPMI-8226 leukemia. Further, the GI50 in the experiment on SF-295 CNS is 9.4 µM; in the experiment on SK-OV-3 ovarian, 63.5 µM; with SN12C renal it was 10.4 µM; with UACC-62 melanoma, 6.49 µM. The TGI in the experiment with A549 NSCLC was more than 100 µM; with HCT-116 colon, more than 100 µM; with LOX IMVI melanoma it was more than 60.7 µM; with M14 melanoma, 22.7 µM; in the experiment with OVCAR-3 ovarian, 60.6 µM; in the experiment on RPMI-8226 leukemia, 3.81 µM. Further, the TGI in the experiment on SF-295 CNS was 79.8 µM; with SK-OV-3 ovarian, more than 100 µM; in the experiment on SN12C renal it was more than 100 µM; in the experiment on UACC-62 melanoma, 15.2 µM.
Turning to `CC1(C)CC(C2CC(C)(C)CC(C)(C)[C@H]2O)[C@@H](O)C(C)(C)C1` (some centres not stated), the TGI in the experiment with A549 NSCLC, in the experiment with HCT-116 colon, in the experiment with LOX IMVI melanoma, in the experiment on M14 melanoma, in the experiment with OVCAR-3 ovarian and in the experiment with RPMI-8226 leukemia was more than 100 µM throughout. Also, the TGI in the experiment with SF-295 CNS, in the experiment on SK-OV-3 ovarian, with SN12C renal and in the experiment on UACC-62 melanoma was more than 100 µM throughout.
`COc1cccc(C2C3=C(COC3=O)N(CCO)c3cc4c(cc32)CCC4)c1` (configuration not stated): the GI50 in the experiment with A549 NSCLC is 0.0982 µM; in the experiment with HCT-116 colon it was 0.0526 µM; in the experiment with LOX IMVI melanoma it was 0.0934 µM; in the experiment with M14 melanoma, 0.0358 µM; with OVCAR-3 ovarian it was 0.018 µM; in the experiment on RPMI-8226 leukemia it was 0.127 µM. Moreover, the GI50 was 0.0148 µM with SF-295 CNS, 0.0663 µM in the experiment with SK-OV-3 ovarian, 0.269 µM in the experiment with SN12C renal and 34.2 µM in the experiment on UACC-62 melanoma. The TGI is 0.692 µM in the experiment on HCT-116 colon; more than 37.1 µM in the experiment with LOX IMVI melanoma; 0.208 µM in the experiment with M14 melanoma; 0.0591 µM in the experiment on OVCAR-3 ovarian; 11.6 µM with RPMI-8226 leukemia; 0.543 µM in the experiment with SF-295 CNS. For the same molecule, the TGI with SN12C renal is more than 32.6 µM; with UACC-62 melanoma it was more than 50 µM.
On to `CCOC(=O)C1=C(O)CSC1=Nc1ccc(N=C2SCC(O)=C2C(=O)OCC)cc1`, for which the TGI with A549 NSCLC is 93 µM; in the experiment on HCT-116 colon it was 35.2 µM; in the experiment on LOX IMVI melanoma it was 32.1 µM; in the experiment on M14 melanoma, 52.5 µM; in the experiment on OVCAR-3 ovarian it was more than 100 µM; in the experiment on RPMI-8226 leukemia it was more than 100 µM. Moreover, the TGI in the experiment with SF-295 CNS came out at 63.1 µM; in the experiment on SK-OV-3 ovarian, 65.3 µM; with SN12C renal, 71.8 µM; with UACC-62 melanoma, 44.2 µM.
